In publication PMC6150173, “Tryptophan-Containing Cyclic Decapeptides with Activity against Plant Pathogenic Bacteria” (Molecules : A Journal of Synthetic Chemistry and Natural …, 2017):
Peptide text beside a SMILES is read from it.

Key:
Type in all cases: cell-based
[1] = test system: Pseudomonas syringae pv. syringae EPS94; test: Antibacterial activity (MIC), in vitro growth inhibition; settings: Table S1, MIC range
Description: (§1) Erwinia amylovora PMV6076 (Institut National de la Recherche Agronomique, Angers, France), Pseudomonas syringae pv. syringae EPS94 (Institut de Tecnologia Agroalimentària, Universitat de Girona, Spain), and Xanthomonas axonopodis pv. vesicatoria 2133-2 (Instituto Valenciano de Investigaciones Agrarias, Valencia, Spain) were used as bacterial strains. They were stored and cultivated as previously described.
(§2) The minimum inhibitory concentration (MIC) was analyzed as previously described at 0.8, 1.6, 3.1, 6.2, 12.5, 25 and 50 μM [20].

[2] = test system: erythrocyte suspensions of human blood; test: Hemolytic activity, hemoglobin release; settings: human blood erythrocytes 5% v/v, absorbance 540 nm, percentage compared to melittin, three replicates; for Hemolysis (%) at 50 µM: peptide 50 μM (table prints 50 µM); for Hemolysis (%) at 125 µM: peptide 125 μM (table prints 125 µM)
Description: The hemolytic activity of the compounds was evaluated at 50 and 125 μM by determining hemoglobin release from erythrocyte suspensions of human blood (5% v/v) (Oxoid) using absorbance at 540 nm, as previously described. Three replicates for each peptide concentration were used.

[3] = test system: Xanthomonas axonopodis pv. vesicatoria 2133-2; settings: Table S1, MIC range
Description: as §1, §2

CC(C)C[C@@H]1NC(=O)[C@H](CCCCN)NC(=O)[C@H](Cc2c[nH]c3ccccc23)NC(=O)[C@H](CCCCN)NC(=O)[C@H](CC(C)C)NC(=O)[C@H](CCCCN)NC(=O)[C@H](CC(C)C)NC(=O)[C@H](CCCCN)NC(=O)[C@H](CCC(N)=O)NC(=O)[C@H](CCCCN)NC1=O [BPC016W, c(KLKLKWKLKQ)] (cyclo(KLKLKWKLKQ))
MIC Pss [1]: 12.5 to 25 µM
Hemolysis (%) at 50 µM [2]: 25%
Hemolysis (%) at 125 µM [2]: 32%
MIC Xav [3]: 3.1 to 6.2 µM

CC(C)C[C@@H]1NC(=O)[C@H](Cc2c[nH]c3ccccc23)NC(=O)[C@H](CCCCN)NC(=O)[C@H](CCCCN)NC(=O)[C@H](CCCCN)NC(=O)[C@H](CCCCN)NC(=O)[C@H](CCCCN)NC(=O)[C@H](CCC(N)=O)NC(=O)[C@H](CC(C)C)NC(=O)[C@H](CC(C)C)NC1=O [BPC058W, c(KKKKKWLLLQ)] (cyclo(KKKKKWLLLQ))
MIC Pss [1]: 12.5 to 25 µM
Hemolysis (%) at 50 µM [2]: 2%
Hemolysis (%) at 125 µM [2]: 3%
MIC Xav [3]: 25 to 50 µM

CC(C)C[C@@H]1NC(=O)[C@H](CCC(N)=O)NC(=O)[C@H](CC(C)C)NC(=O)[C@H](CCCCN)NC(=O)[C@H](CCCCN)NC(=O)[C@H](Cc2c[nH]c3ccccc23)NC(=O)[C@H](CCCCN)NC(=O)[C@H](CC(C)C)NC(=O)[C@H](CCCCN)NC(=O)[C@H](CCCCN)NC1=O [BPC092W, c(LKKLKWKKLQ)] (cyclo(KKLKWKKLQL))
MIC Pss [1]: 6.2 to 12.5 µM
Hemolysis (%) at 50 µM [2]: 2%
Hemolysis (%) at 125 µM [2]: 3%
MIC Xav [3]: 3.1 to 6.2 µM

CC(C)C[C@@H]1NC(=O)[C@H](CCCCN)NC(=O)[C@H](CCCCN)NC(=O)[C@H](CCCCN)NC(=O)[C@H](CCCCN)NC(=O)[C@H](CCC(N)=O)NC(=O)[C@H](CCCCN)NC(=O)[C@H](CC(C)C)NC(=O)[C@H](CC(C)C)NC(=O)[C@H](Cc2c[nH]c3ccccc23)NC1=O [BPC100W, c(KKKKLWLLKQ)] (cyclo(KKKKLWLLKQ))
MIC Pss [1]: 12.5 to 25 µM
Hemolysis (%) at 50 µM [2]: 19%
Hemolysis (%) at 125 µM [2]: 27%
MIC Xav [3]: 6.2 to 12.5 µM

CC(C)C[C@@H]1NC(=O)[C@H](CCCCN)NC(=O)[C@H](Cc2c[nH]c3ccccc23)NC(=O)[C@H](CC(C)C)NC(=O)[C@H](CCCCN)NC(=O)[C@H](CC(C)C)NC(=O)[C@H](CCCCN)NC(=O)[C@H](CCCCN)NC(=O)[C@H](CCC(N)=O)NC(=O)[C@H](CCCCN)NC1=O [BPC112W, c(KKLKLWKLKQ)] (cyclo(KKLKLWKLKQ))
MIC Pss [1]: 3.1 to 6.2 µM
Hemolysis (%) at 50 µM [2]: 3%
Hemolysis (%) at 125 µM [2]: 4%
MIC Xav [3]: 6.2 to 12.5 µM

CC(C)C[C@@H]1NC(=O)[C@H](CCCCN)NC(=O)[C@H](Cc2c[nH]c3ccccc23)NC(=O)[C@H](CCCCN)NC(=O)[C@H](CCCCN)NC(=O)[C@H](CC(C)C)NC(=O)[C@H](CCCCN)NC(=O)[C@H](CC(C)C)NC(=O)[C@H](CCC(N)=O)NC(=O)[C@H](CCCCN)NC1=O [BPC124W, c(LKLKKWKLKQ)] (cyclo(KKWKLKQLKL))
MIC Pss [1]: 6.2 to 12.5 µM
Hemolysis (%) at 50 µM [2]: 2%
Hemolysis (%) at 125 µM [2]: 2%
MIC Xav [3]: 3.1 to 6.2 µM

CC(C)C[C@@H]1NC(=O)[C@H](CCCCN)NC(=O)[C@H](CCCCN)NC(=O)[C@H](CCC(N)=O)NC(=O)[C@H](CCCCN)NC(=O)[C@H](CCCCN)NC(=O)[C@H](CCCCN)NC(=O)[C@H](Cc2c[nH]c3ccccc23)NC(=O)[C@H](CC(C)C)NC(=O)[C@H](CC(C)C)NC1=O [BPC148W, c(KKLLLWKKKQ)] (cyclo(KKKQKKLLLW))
MIC Pss [1]: 12.5 to 25 µM
Hemolysis (%) at 50 µM [2]: 1%
Hemolysis (%) at 125 µM [2]: 2%
MIC Xav [3]: 12.5 to 25 µM

CC(C)C[C@@H]1NC(=O)[C@H](CCCCN)NC(=O)[C@H](CCC(N)=O)NC(=O)[C@H](CCCCN)NC(=O)[C@H](CCCCN)NC(=O)[C@H](CCCCN)NC(=O)[C@H](Cc2c[nH]c3ccccc23)NC(=O)[C@H](CC(C)C)NC(=O)[C@H](CC(C)C)NC(=O)[C@H](CCCCN)NC1=O [BPC150W, c(KLKLLWKKKQ)] (cyclo(KKKQKLKLLW))
MIC Pss [1]: 12.5 to 25 µM
Hemolysis (%) at 50 µM [2]: 17%
Hemolysis (%) at 125 µM [2]: 32%
MIC Xav [3]: 6.2 to 12.5 µM

CC(C)C[C@@H]1NC(=O)[C@H](CCC(N)=O)NC(=O)[C@H](CCCCN)NC(=O)[C@H](CCCCN)NC(=O)[C@H](CCCCN)NC(=O)[C@H](Cc2c[nH]c3ccccc23)NC(=O)[C@H](CC(C)C)NC(=O)[C@H](CC(C)C)NC(=O)[C@H](CCCCN)NC(=O)[C@H](CCCCN)NC1=O [BPC152W, c(LKKLLWKKKQ)] (cyclo(KKKQLKKLLW))
MIC Pss [1]: 6.2 to 12.5 µM
Hemolysis (%) at 50 µM [2]: 1%
Hemolysis (%) at 125 µM [2]: 3%
MIC Xav [3]: 6.2 to 12.5 µM

CC(C)C[C@@H]1NC(=O)[C@H](CCC(N)=O)NC(=O)[C@H](CCCCN)NC(=O)[C@H](CCCCN)NC(=O)[C@H](CCCCN)NC(=O)[C@H](Cc2c[nH]c3ccccc23)NC(=O)[C@H](CC(C)C)NC(=O)[C@H](CCCCN)NC(=O)[C@H](CC(C)C)NC(=O)[C@H](CCCCN)NC1=O [BPC156W, c(LKLKLWKKKQ)] (cyclo(KKKQLKLKLW))
MIC Pss [1]: 6.2 to 12.5 µM
Hemolysis (%) at 50 µM [2]: 1%
Hemolysis (%) at 125 µM [2]: 2%
MIC Xav [3]: 3.1 to 6.2 µM

CC(C)C[C@@H]1NC(=O)[C@H](CCCCN)NC(=O)[C@H](CCC(N)=O)NC(=O)[C@H](CCCCN)NC(=O)[C@H](CCCCN)NC(=O)[C@H](CCCCN)NC(=O)[C@H](Cc2c[nH]c3ccccc23)NC(=O)[C@H](CCCCN)NC(=O)[C@H](CC(C)C)NC(=O)[C@H](CC(C)C)NC1=O [BPC160W, c(KLLLKWKKKQ)] (cyclo(KKKQKLLLKW))
MIC Pss [1]: 6.2 to 12.5 µM
Hemolysis (%) at 50 µM [2]: 3%
Hemolysis (%) at 125 µM [2]: 6%
MIC Xav [3]: 6.2 to 12.5 µM

CC(C)C[C@@H]1NC(=O)[C@H](CCC(N)=O)NC(=O)[C@H](CCCCN)NC(=O)[C@H](CCCCN)NC(=O)[C@H](CCCCN)NC(=O)[C@H](Cc2c[nH]c3ccccc23)NC(=O)[C@H](CCCCN)NC(=O)[C@H](CC(C)C)NC(=O)[C@H](CC(C)C)NC(=O)[C@H](CCCCN)NC1=O [BPC162W, c(LKLLKWKKKQ)] (cyclo(KKKQLKLLKW))
MIC Pss [1]: 6.2 to 12.5 µM
Hemolysis (%) at 50 µM [2]: 57%
Hemolysis (%) at 125 µM [2]: 56%
MIC Xav [3]: 3.1 to 6.2 µM

CC(C)C[C@@H]1NC(=O)[C@H](CCCCN)NC(=O)[C@H](CC(C)C)NC(=O)[C@H](CC(C)C)NC(=O)[C@H](CCC(N)=O)NC(=O)[C@H](CCCCN)NC(=O)[C@H](CCCCN)NC(=O)[C@H](CCCCN)NC(=O)[C@H](Cc2c[nH]c3ccccc23)NC(=O)[C@H](CCCCN)NC1=O [BPC164W, c(LLKLKWKKKQ)] (cyclo(KKKQLLKLKW))
MIC Pss [1]: 6.2 to 12.5 µM
Hemolysis (%) at 50 µM [2]: 6%
Hemolysis (%) at 125 µM [2]: 6%
MIC Xav [3]: 6.2 to 12.5 µM

CC(C)C[C@@H]1NC(=O)[C@H](CCC(N)=O)NC(=O)[C@H](CCCCN)NC(=O)[C@H](CCCCN)NC(=O)[C@H](CCCCN)NC(=O)[C@H](Cc2c[nH]c3ccccc23)NC(=O)[C@H](CCCCN)NC(=O)[C@H](CCCCN)NC(=O)[C@H](CC(C)C)NC(=O)[C@H](CC(C)C)NC1=O [BPC166W, c(LLLKKWKKKQ)] (cyclo(KKKQLLLKKW))
MIC Pss [1]: 6.2 to 12.5 µM
Hemolysis (%) at 50 µM [2]: 1%
Hemolysis (%) at 125 µM [2]: 1%
MIC Xav [3]: 6.2 to 12.5 µM
